Legend:
[1] = tested on: procaspase-3 in U-937, A549, BT-549 cell lines; test: Western blot of procaspase-3 cleavage to caspase-3 in cancer cell lines; assay type: cell-based, human
Source text: FIG. 5. PAC-1/1541B combinations induce rapid and dramatic procaspase-3 maturation and activation. A: The caspase-3/-7-like activity of cancer cell lysates after treatment with the PAC-1/1541B combinations. STS=staurosporine. B: Western blot of various cancer cell lines (using Cell Signaling caspase-3 antibody) after treatment with combinations of PAC-1 and 1541B.
FIG. 6. Data analogous to FIG. 5B with A: HL-60 (human leukemia), B: EL4 (murine lymphoma), C: Hs578T (human breast cancer), and D: Jurkat (human leukemia) cell lines.
FIG. 13. Western blot procaspase3 activation analysis of U-937 cells treated with increasing concentrations of 1541B and either with or without PAC-1.
To determine if the elevation of DEVDase activity was the result of enhanced cleavage of procaspase-3 to caspase-3 facilitated by compound co-treatment, cells treated with PAC-1 and 1541B combinations were assessed by Western blot.
Rather 1541 operates by an allosteric binding and activation mechanism.

[2] = tested on: EL4 (murine lymphoma) cells; test: EL4 syngeneic murine tumor model; assay type: in vivo, C57/BL6 mice; details: PAC-1 125 mg/kg in HPβCD once-a-day for three days; tumors weighed after 8 days
Description: EL4 cells (10 million cells per mouse) were injected subcutaneously into mice, the animals were split into four groups and treated with vehicle (2-hydroxypropyl-β-cyclodextrin, HPβCD), 1541B (at 17.5 mg/kg in HPβCD), PAC-1 (125 mg/kg in HPβCD), or 1541B+PAC-1 (17.5 and 125 mg/kg, respectively, in HPβCD). After eight days the mice were sacrificed and the tumors excised and weighed. Error bars equal standard error, and p-values indicated are relative to vehicle control.
To explore the therapeutic utility of this dual procaspase-3 activation strategy, the combination of PAC-1 and 1541B were examined in a murine tumor model.
C57/BL6 mice implanted with EL4 (murine lymphoma) cells were treated with PAC-1 alone (125 mg/kg), 1541B alone (17.5 mg/kg), and PAC-1+1541B (125 mg/kg and 17.5 mg/kg, respectively) once-a-day for three days.

[3] = tested on: MCF-7 cells; test: Protection by a pan-caspase inhibitor against PAC-1/1541B-mediated cell death; assay type: cell-based; details: Q-VD-OPh 25 μM
Source text: The proapoptotic effect of the PAC-1/1541B combination was blocked with the pan-caspase inhibitor Q-VD-OPh, consistent with the involvement of caspases in the mode of cell death (FIG. 10).

C=CCc1cccc(/C=N/NC(=O)CN2CCN(Cc3ccccc3)CC2)c1O [PAC-1, 2-(4-benzylpiperazin-1-yl)-N-[(2-hydroxy-3-prop-2-enyl-phenyl)methylideneamino]acetamide] was tested, and the “activation of procaspase-3 to caspase-3 (Western blot)” value [1] was “low/no procaspase-3 activation” and the “effect on tumor growth” value [2] was “only minimal effect”.

In the case of CC(C)[C@H](NC(=O)c1ccc2ccccc2n1)C(=O)N[C@@H](CC(=O)O)C(=O)COc1c(F)cccc1F [Q-VD-OPh], the “protection against PAC-1/1541B-mediated cell death” value [3] was “protects against PAC-1/1541B-mediated cell death”.
